For assay [1], the system named is Pseudomonas aeruginosa PA14. Briefly: Static peg assay for prevention of biofilm formation (Calgary device, crystal violet). The class given is cell-based. As to the method: (§1) Evaluation of the biofilm inhibitory activity of some substituted 2-amino-1H-imidazoles of the invention was carried out by growing up biofilms of S. Typhimurium ATCC14028 or SL1344 or Pseudomonas aeruginosa PA14 in the presence of different concentrations (1/2 dilution series) of biofilm inhibitors, by using the Calgary biofilm device. After an incubation period of 24 hours at 25° C. or 37° C. or 48 hours at 16° C. the biofilms were visualized by crystal violet staining. In the next step the stain was extracted from the biofilm with 30% acetic acid. The absorbance of the resolubilized stain at 570 nm is a measure of the amount of biofilm formed.
The device used for Pseudomonas aeruginosa biofilm formation is the same platform carrying polystyrene pegs as described above for Salmonella Typhimurium.
Two-fold serial dilutions of the compounds in 100 μl liquid broth per well were prepared in the microtiter plate. Subsequently, an overnight culture of P. aeruginosa PA14 (grown up in TSB medium) was diluted 1:100 into liquid broth and 100 μl was added to each well of the microtiter plates, resulting in a total amount of 200 μl medium per well. The pegged lid was placed on the microtiter plate and the plate was incubated for 24 hours at 25° C., 30° C. or 37° C. without shaking. During this incubation period biofilms were formed on the surface of the pegs. The liquid broth used for the tests at 25° C. was TSB 1/20. The tests at 37° C. were performed in CFA and/or LBNS broth. During incubation at 30° C. and 37° C. the plates were placed in a humidity controlled container to prevent evaporation of the growth medium. Quantification of biofilm formation was performed similarly as described previously for the S. Typhimurium biofilm assays.
as §1, with “imidazo[1,2-a]pyrimidinium bromide salts” for “2-amino-1H-imidazoles”
as §1, with “substituted imidazo[1,2-a]-pyrimidinium bromide and perchlorate salts produced according to examples 3 and 5” for “substituted 2-amino-1H-imidazoles of the invention”, “C.” for “C. or 37° C. or 48 hours at 16° C.”, “nm was taken as” for “nm is”

The next assay relates to S. Typhimurium ATCC14028. The description is as above. Format: cell-based, Salmonella Typhimurium. As to the method:
as §1
In examples 2 and 3, the following materials and methods were used.
The device used for biofilm formation is a platform carrying 96 polystyrene pegs (Nunc no. 445497) that fits as a microtiter plate lid with a peg hanging into each microtiter plate well (Nunc no. 269789). Biofilm formation assays were carried out at 16° C., 25° C. and 37° C.
For biofilm assays at 16° C. and 25° C., two-fold serial dilutions of the compounds in 100 μl liquid TSB 1/20 broth per well were prepared in the microtiter plate. Subsequently, an overnight culture of S. Typhimurium ATCC14028 or SL1344 (grown up in LB medium) was diluted 1:100 into TSB 1/20 broth and 100 μl (ca. 10^6 cells) was added to each well of the microtiter plates, resulting in a total amount of 200 μl medium per well. The pegged lid was placed on the microtiter plate and the plate was incubated for 48 hours at 16° C. or for 24 hours at 25° C. without shaking. During this incubation period biofilms were formed on the surface of the pegs. In case of the assay at 16° C., after 24 hours the lid was transferred into a new plate with medium and the specific molecules used for testing. […] For quantification of biofilm formation, the pegs were washed once in 200 μl phosphate buffered saline (PBS). The remaining attached bacteria were stained for 30 minutes with 200 μl 0.1% (w/v) crystal violet in an isopropanol/methanol/PBS solution (v/v 1:1:18). Excess stain was rinsed off by placing the pegs in a 96-well plate filled with 200 μl distilled water per well. After the pegs were air dried (30 min), the dye bound to the adherent cells was extracted with 30% glacial acetic acid (200 μl). The OD570 of each well was measured using the VERSAmax microtiter plate reader. The IC50 value for each compound was determined from concentration gradients in two or three independent experiments (with 2 or 3 repeats per experiment), by using the GraphPad software of Prism.
For biofilm assays at 37° C., two-fold serial dilutions of the compounds in 50 μl liquid CFA broth per well were prepared in the microtiter plate. Subsequently, an overnight culture of S. Typhimurium ATCC 14028 was diluted 1:100 into CFA broth and 100 μl (ca. 10^6 cells) was added to each well of the microtiter plates, resulting in a total amount of 150 μl medium per well. The pegged lid was placed on the microtiter plate and the plate was incubated for 24 hours at 37° C. without shaking. During incubation the plates were placed in a humidity controlled container to prevent evaporation of the growth medium. Quantification of biofilm formation was performed similarly as described above for the assays at 16° C. and 25° C.
as §1, with “imidazo[1,2-a]pyrimidinium bromide salts” for “2-amino-1H-imidazoles”

Where [2] appears, read: 25° C., 24 hours, Table 15, read-out: (2) IC50 (biofilm inhibition).
The mark [3] stands for this setting: 25° C., Table 16, read-out: P. aeruginosa IC50 (biofilm formation).
The mark [4] stands for this setting: 25° C., 24 hours, Table 15, read-out: (1) IC50 (biofilm inhibition).
[5] abbreviates: 25° C., Table 16, read-out: S. Typhimurium IC50 (biofilm formation).
Where [6] appears, read: 25° C., Table 18, read-out: S. Typhimurium IC50 (biofilm formation).
The mark [7] stands for this setting: P. aeruginosa PA14, 25° C., read-out: P. aeruginosa IC50 (biofilm formation).
Setting [8] is: S. Typhimurium ATCC 14028, 25° C., read-out: S. Typhimurium IC50 (biofilm formation).
Where [9] appears, read: Salmonella enterica, 25° C., Table 11, read-out: IC50 (biofilm formation).
Setting [10] is: Salmonella enterica, 25° C., Table 14, read-out: IC50 biofilm inhibition.
Where [11] appears, read: 25° C., strain not given, read-out: IC(50), preventive activity against S. typhimurium biofilms.
Setting [12] is: 25° C., Table 11, read-out: IC50 (biofilm formation).
[13] abbreviates: 25° C., Table 14, read-out: IC50 biofilm inhibition.
The mark [14] stands for this setting: S. Typhimurium ATCC 14028, 25° C., read-out: IC50 for biofilm inhibition (25° C.).

Structures are written as SMILES. Read-outs that look alike come from different tables or passages of the source.

Take `CCCCCCCCN1c2nccc[n+]2CC1(O)c1ccccc1` (racemic) [Compound 8]: the IC50 stood at 11.2 µM in assay [1] (setting [2]), 18.9 µM in assay [1] (setting [3]), 9.77 µM in the assay with S. Typhimurium ATCC14028 (setting [4]) and 9.8 µM in the assay with S. Typhimurium ATCC14028 (setting [5]).
With `OC1(c2ccc(Cl)cc2)C[n+]2cccnc2N1C1CCCCCCCCCCC1` (centres unmarked) [Compound 67], the IC50 was 6.8 µM in assay [1] (25° C., Table 18, read-out: P. aeruginosa IC50 (biofilm formation)) and 5.6 µM in the assay with S. Typhimurium ATCC14028 (setting [6]).
For `CCCCCCCCN1c2nccc[n+]2CC1(O)c1ccc([N+](=O)[O-])cc1` (centres unmarked) [Compound 35], the IC50 in assay [1] (setting [2]) came to 7.65 µM; in assay [1] (setting [3]), 19.7 µM; in the assay with S. Typhimurium ATCC14028 (setting [4]) it was 6.62 µM; in the assay with S. Typhimurium ATCC14028 (setting [5]), 6.6 µM.
Turning to `CCCCCCN1c2nccc[n+]2CC1(O)c1ccccc1` (racemic) [Compound 6], the IC50 in assay [1] (setting [2]) turned out to be 3.13 µM; in assay [1] (setting [3]), 406 µM; in the assay on S. Typhimurium ATCC14028 (setting [4]), 102 µM; with S. Typhimurium ATCC14028 (setting [5]), 102 µM.
As for `CCCCCCCCCCN1c2nccc[n+]2CC1(O)c1ccc(Cl)cc1` (racemic) [Compound 23], the IC50 in assay [1] (setting [2]) turned out to be 193 µM; in assay [1] (setting [3]) it was 66.4 µM; in the assay with S. Typhimurium ATCC14028 (setting [4]), 51.3 µM; in the assay on S. Typhimurium ATCC14028 (setting [5]), 51.3 µM.
For the molecule `CC(C)CNc1ncc(-c2ccc(Br)cc2)[nH]1` [Compound 103], the IC50 in assay [1] (setting [7]) was found to be 1.2 µM; with S. Typhimurium ATCC14028 (setting [8]), 2.9 µM.
Regarding `CCCCCCCCNc1ncc(-c2ccc([N+](=O)[O-])cc2)[nH]1` [Compound 95], the IC50 in assay [1] (setting [7]) is ~25 µM; in the assay with S. Typhimurium ATCC14028 (setting [8]) it was 10.9 µM.
Take `COc1ccc(CN2c3nccc[n+]3CC2(O)c2ccc([N+](=O)[O-])cc2)cc1` (centres unmarked) [R1=p-MeOBn, R3=4-NO2-Ph, R4=H, 1-(4-methoxybenzyl)-2-hydroxy-2-(4-nitrophenyl)-2,3-dihydro-1H-imidazo[1,2-a]pyrimidin-4-ium bromide]: the IC50 with S. Typhimurium ATCC14028 (setting [9]) and in the assay with S. Typhimurium ATCC14028 (setting [10]) was 220 µM each time.
Consider `Clc1ccc(-c2cnc(NCCCn3cc(-c4ccsc4)nn3)[nH]2)cc1Cl` [R3=3,4-diClPh; R4=H; R9=thiofuran; n=3], for which the IC50 in the assay with S. Typhimurium ATCC14028 (setting [11]) was found to be 2 µM.
Turning to `O=[N+]([O-])c1ccc(C2(O)C[n+]3cccnc3N2C2CC2)cc1` (centres unmarked) [Compound 68], the IC50 in the assay on S. Typhimurium ATCC14028 (setting [6]) is 125 µM.
As for `CCCCCCN1c2nccc[n+]2C(C)C1(O)c1ccccc1` (centres unmarked) [R1=Hexyl, R3=Ph, R4=Me, 1-hexyl-2-hydroxy-2-phenyl-3-methyl-2,3-dihydro-1H-imidazo[1,2-a]pyrimidin-4-ium bromide], the IC50 in the assay on S. Typhimurium ATCC14028 (setting [9]) and in the assay on S. Typhimurium ATCC14028 (setting [10]) was 218 µM throughout.
As to `CNc1ncc(-c2ccc(O)cc2)[nH]1` [Compound 113], the IC50 in the assay with S. Typhimurium ATCC14028 (setting [8]) stood at 160 µM.
As to `CCCCCCCC[n+]1c(-c2ccc(-c3ccc(-c4ccccc4)cc3)cc2)cn2cccnc21.[O-][Cl+3]([O-])([O-])[O-]` [1-octyl-2-([1,1′:4′,1″-terphenyl]-4-yl)-imidazo[1,2-a]pyrimidin-1-ium perchlorate], in the assay with S. Typhimurium ATCC14028 (Salmonella enterica, 24 h, read-out: (1) IC50 (biofilm inhibition)), the IC50 amounted to 5.03 µM.
For the molecule `CCCCN1c2nccc[n+]2CC1(O)c1ccc(F)cc1` (centres unmarked) [Compound 38], the IC50 in the assay with S. Typhimurium ATCC14028 (setting [12]) is 175 µM; in the assay on S. Typhimurium ATCC14028 (setting [13]) it was 175 µM; in the assay with S. Typhimurium ATCC14028 (setting [5]), 163 µM.
`COc1ccc(CN2c3nccc[n+]3CC2(O)c2ccc(Br)cc2)cc1` (centres unmarked) [Compound 74]: the IC50 in the assay on S. Typhimurium ATCC14028 (setting [12]) was 105 µM; in the assay with S. Typhimurium ATCC14028 (setting [13]) it was 105 µM; with S. Typhimurium ATCC14028 (25° C., Table 19, read-out: IC50 (biofilm formation)), 110 µM.
For `Cc1ccc(-c2cn(CCNc3ncc(-c4ccc(Br)cc4)[nH]3)nn2)cc1` [R3=4-BrPh; R4=H; R9=p-MePh; n=2], the IC50 with S. Typhimurium ATCC14028 (setting [11]) was > 800 µM.
Same read-out and setting: next, `CCCc1cn(CCNc2ncc(-c3ccc(Br)cc3)[nH]2)nn1` [R3=4-BrPh; R4=H; R9=propyl; n=2]: 25.3 µM.
Regarding `c1ccc(-c2ccc(-c3c[nH]c(NC4CCCC4)n3)cc2)cc1` [R1=H, R2=cyclopentyl, R3=H, R4=Bi—Ph], in the assay on S. Typhimurium ATCC14028 (setting [14]), the IC50 was 46 µM.
On to `CCCCCc1ccc(-c2cn(CCCNc3ncc(-c4ccc(Br)cc4)[nH]3)nn2)cc1` [R3=4-BrPh; R4=H; R9=p-PenPh; n=3], for which the IC50 in the assay on S. Typhimurium ATCC14028 (setting [11]) is > 800 µM.
Still for that read-out and setting: next, `Brc1ccc(-c2cnc(NCCn3cc(C4CC4)nn3)[nH]2)cc1` [R3=4-BrPh; R4=H; R9=c-propyl; n=2]: 2.02 µM.
Still for that read-out and setting: next, `CC(C)(N)c1cn(CCCNc2ncc(-c3ccc(Br)cc3)[nH]2)nn1` [R3=4-BrPh; R4=H; R9=C(CH3)2(NH2); n=3]: 30.9 µM.
Consider `N#Cc1ccc(C2(O)C[n+]3cccnc3N2C2CCCCC2)cc1` (centres unmarked) [R1=cyclohexyl, R3=4-CN—Ph, R4=H, 1-cyclohexyl-2-hydroxy-2-(4-cyanophenyl)-2,3-dihydro-1H-imidazo[1,2-a]pyrimidin-4-ium bromide], for which the IC50 in the assay with S. Typhimurium ATCC14028 (setting [9]) and in the assay with S. Typhimurium ATCC14028 (setting [10]) was 354 µM in each case.
Regarding `CN1c2nccc[n+]2CC1(O)c1cccc([N+](=O)[O-])c1` (centres unmarked) [Compound 44], the IC50 with S. Typhimurium ATCC14028 (setting [5]) was 564 µM.
On to `CNc1nc(-c2ccc(F)cc2)c[nH]1` [R1=H, R2=Methyl, R3=H, R4=p-F—Ph], for which the IC50 in the assay with S. Typhimurium ATCC14028 (setting [14]) is 102 µM.
For `CCCCCCCCCCN1c2nccc[n+]2CC1(O)c1ccc(OC)cc1` (centres unmarked) [Compound 47], the IC50 with S. Typhimurium ATCC14028 (setting [4]) and with S. Typhimurium ATCC14028 (setting [5]) was 18.6 µM in each case.
Regarding `CCCCCc1cn(CCNc2nc(-c3ccc(C)cc3)c(-c3ccc(Cl)cc3)[nH]2)nn1` [R3=p-ClPh; R4=p-MePh; R9=Pentyl; n=2], the IC50 in the assay on S. Typhimurium ATCC14028 (setting [11]) was 371 µM.
For the molecule `Cc1ccc(C2(O)C[n+]3cccnc3N2C(C)C)cc1` (centres unmarked) [R1=Isopropyl, R3=4-Me—Ph, R4=H, 1-isopropyl-2-hydroxy-2-(4-methylphenyl)-2,3-dihydro-1H-imidazo[1,2-a]pyrimidin-4-ium bromide], the IC50 in the assay on S. Typhimurium ATCC14028 (setting [9]) and in the assay on S. Typhimurium ATCC14028 (setting [10]) was 217 µM each time.
Take `CC(C)CN1c2nccc[n+]2CC1(O)c1ccc(Cl)c(Cl)c1` (centres unmarked) [Compound 48]: the IC50 in the assay on S. Typhimurium ATCC14028 (setting [5]) was found to be 8 µM.
For the molecule `c1ccc(-c2c[nH]c(NC3CCCC3)n2)cc1` [R1=H, R2=cyclopentyl, R3=H, R4=Ph], the IC50 in the assay with S. Typhimurium ATCC14028 (setting [14]) came to 53 µM.

Source of the values: patent US20130029981A1, “COMPOUNDS, COMPOSITIONS, AND METHODS FOR CONTROLLING BIOFILMS” (Katholieke Universiteit Leuven, priority 2009, published 2013).
